For 83 compounds, Ki results are on record in ChEMBL document CHEMBL1135480, “Design and quantitative structure-activity relationship of 3-amidinobenzyl-1H-indole-2-carboxamides as potent, nonchiral, and selective inhibitors of blood coagulation factor Xa” (J Med Chem, 2002).

As usually defined, the Ki is a measure of affinity in units of concentration, obtained from inhibition or displacement.

Molecules are shown by their SMILES. Several values for one entry are separate records, joined by “and”; a condition that tells them apart may be missing. Equal values may be shown once.

For the assay, the target named is Coagulation factor X (Homo sapiens, UniProt P00742). Put plainly: Inhibition of Coagulation factor Xa.
Chain of Coagulation factor X (P00742 41-179 limits assumed): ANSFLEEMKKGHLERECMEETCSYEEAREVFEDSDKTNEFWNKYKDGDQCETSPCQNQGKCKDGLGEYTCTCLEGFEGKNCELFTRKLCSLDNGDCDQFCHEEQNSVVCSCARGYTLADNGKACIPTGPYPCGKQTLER
Chain of Coagulation factor X (P00742 235-488 limits assumed): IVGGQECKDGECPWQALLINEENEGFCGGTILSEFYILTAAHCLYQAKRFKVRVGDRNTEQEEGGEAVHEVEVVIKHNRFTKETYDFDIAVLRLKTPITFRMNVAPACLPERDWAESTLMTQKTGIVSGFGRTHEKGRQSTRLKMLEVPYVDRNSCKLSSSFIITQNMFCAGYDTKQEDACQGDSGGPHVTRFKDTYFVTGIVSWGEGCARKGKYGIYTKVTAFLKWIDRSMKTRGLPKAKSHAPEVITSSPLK
For `N=C(N)c1cccc(COC(=O)c2cc3cc(OCc4ccccc4)ccc3n2Cc2cccc(C(=N)N)c2)c1`, the affinity, expressed as Ki, was 61 nM.
The compound `N=C(N)c1cccc(Cn2c(C(=O)NCC3CCCCC3)cc3c(O)cccc32)c1` showed a Ki of 1110 nM.
The compound `Cc1cccc2c1cc(C(=O)NCC1CCC(C(=N)N)CC1)n2Cc1cccc(C(=N)N)c1` (stereo not drawn) showed a Ki of 45 nM.
As for `CN(C)c1ccc(CNC(=O)c2cc3cc(F)ccc3n2Cc2cccc(C(=N)N)c2)cc1`, affinity was put at a Ki of 3520 nM.
For `N=C(N)c1cccc(Cn2c(C(=O)NCc3cc(F)cc(F)c3)cc3c(O)cccc32)c1`, the affinity corresponds to a Ki of 191 nM.
For `C[N+](C)(C)c1ccc(CNC(=O)c2cc3cc(F)ccc3n2Cc2cccc(C(=N)N)c2)cc1`, the Ki is 66 nM and 90 nM.
Compound `Cc1c(C(=O)NCc2cc[n+](C)cc2)n(Cc2cccc(C(=N)N)c2)c2ccccc12` yielded an inhibition constant Ki of 170 nM.
Consider `COC(=O)CN(Cc1cc[n+](C)cc1)C(=O)c1cc2ccccc2n1Cc1cccc(C(=N)N)c1`, for which the affinity, expressed as Ki, was 170 nM.
The compound `N=C(N)c1cccc(Cn2c(C(=O)NCc3cccc4ccccc34)cc3c(O)cccc32)c1` showed a Ki of 68 nM.
Take `C[N+](C)(C)c1ccc(CNC(=O)c2cc3cc(Br)ccc3n2Cc2cccc(C(=N)N)c2)cc1`: the Ki came to 134 nM.
Consider `N=C(N)c1cccc(Cn2c(C(=O)NCC(=O)Nc3ccc4ccccc4c3)cc3c(O)cccc32)c1`, for which the Ki was 2380 nM.
Compound `N=C(N)c1cccc(CNC(=O)c2cc3cc(O)ccc3n2Cc2cccc(C(=N)N)c2)c1` yielded a Ki of 77 nM.
`C#CC[N+](C)(C)c1ccc(CNC(=O)c2cc3cc(F)ccc3n2Cc2cccc(C(=N)N)c2)cc1` had a Ki of 76 nM.
Compound `CN(C)c1ccc(CNC(=O)c2cn(Cc3cccc(C(=N)N)c3)c3ccccc23)cc1` yielded a Ki of 2190 nM.
Compound `N=C(N)c1cccc(CNC(=O)c2cn(Cc3cccc(C(=N)N)c3)c3ccccc23)c1` returned a Ki of 1230 nM.
Compound `Cc1cccc2c1cc(C(=O)NCC1CCN(C(=N)N)CC1)n2Cc1cccc(C(=N)N)c1` returned a Ki of 25 nM.
In the case of `COc1ccc(CNC(=O)c2cc3c(O)cccc3n2Cc2cccc(C(=N)N)c2)cc1`, the inhibition constant (Ki) worked out at 1360 nM.
With `N=C(N)c1cccc(Cn2c(C(=O)NCc3ccc(Cl)c(Cl)c3)cc3c(O)cccc32)c1`, the Ki is 841 nM.
Under `C[N+](C)(C)c1ccc(CNC(=O)c2cc3ccccc3n2Cc2cccc(C(=N)N)c2)cc1` stands 400 nM; under `C[n+]1ccc(CNC(=O)c2cc3ccccc3n2Cc2ccc(C(=N)N)cc2)cc1`, 600 nM; under `C=CC[N+](C)(C)c1ccc(CNC(=O)c2cc3cc(F)ccc3n2Cc2cccc(C(=N)N)c2)cc1`, 141 nM.
Consider `N=C(N)c1cccc(Cn2c(C(=O)NCCNc3cccc4ccccc34)cc3c(O)cccc32)c1`, for which the Ki came to 318 nM.
For the compound `CC[N+](C)(C)c1ccc(CNC(=O)c2cc3cc(F)ccc3n2Cc2cccc(C(=N)N)c2)cc1`, the affinity, expressed as Ki, was 103 nM.
Compound `N=C(N)c1cccc(CNC(=O)c2cc3cc(OCc4ccccc4)ccc3n2Cc2cccc(C(=N)N)c2)c1` gave a Ki of 133 nM.
Under `COc1cccc2c1cc(C(=O)NCCc1cc[n+](C)cc1)n2Cc1cccc(C(=N)N)c1` stands 160 nM.
Regarding `N=C(N)c1cccc(Cn2c(C(=O)NCCc3ccc(Cl)cc3)cc3c(O)cccc32)c1`, the Ki was 1560 nM.
Compound `N=C(N)c1cccc(Cn2c(C(=O)NCc3cccc(I)c3)cc3c(O)cccc32)c1` came in with a Ki of 42 nM.
Consider `N=C(N)c1cccc(CNC(=O)c2cc3ccccc3n2Cc2cccc(C(=N)N)c2)c1`, for which the Ki is 26 nM and 19 nM.
Turning to `N=C(N)c1cccc(Cn2c(C(=O)NCc3ccc4ccc5cccc6ccc3c4c56)cc3c(O)cccc32)c1`, the affinity, expressed as Ki, was 2060 nM.
Under `N=C(N)c1cccc(Cn2c(C(=O)NCc3cc(Cl)cc(Cl)c3)c(Br)c3ccccc32)c1` stands 85 nM.
On to `CCN(Cc1cc[n+](C)cc1)C(=O)c1cc2ccccc2n1Cc1cccc(C(=N)N)c1`, for which the affinity corresponds to a Ki of 500 nM.
`COc1cccc2c1cc(C(=O)NCc1ccc(O)cc1)n2Cc1cccc(C(=N)N)c1` returned a Ki of 183 nM.
`N=C(N)c1cccc(Cn2c(C(=O)NCc3cccc(C(=O)O)c3)cc3c(O)cccc32)c1` displayed an inhibition constant (Ki) of 10000 nM.
`N=C(N)c1cccc(Cn2c(C(=O)NCc3cccc(Br)c3)cc3c(O)cccc32)c1` came in with a Ki of 117 nM.
For `N=C(N)c1cccc(Cn2c(C(N)=O)cc3ccccc32)c1`, affinity was put at a Ki of 5650 nM.
`C[n+]1ccc(CNC(=O)c2cc3cc(F)ccc3n2Cc2cccc(C(=N)N)c2)cc1` displayed a Ki of 360 nM.
The same measure for `COc1cccc2c1cc(C(=O)NC(c1ccccc1)c1ccncc1)n2Cc1cccc(C(=N)N)c1` (stereo not drawn): 6790 nM.
`C[C@H](NC(=O)c1cc2cc(OCc3ccccc3)ccc2n1Cc1cccc(C(=N)S)c1)c1ccccc1` registered a Ki of 4830 nM.
On to `N=C(N)c1cccc(Cn2c(C(=O)NCc3ccccn3)cc3c(O)cccc32)c1`, for which the Ki was 3330 nM.
In turn, `N=C(N)c1cccc(Cn2c(C(=O)NCc3ccc(Cl)cc3)cc3ccccc32)c1` registered a Ki of 3600 nM.
Take `COc1cccc2c1cc(C(=O)NCc1ccc(-c3cc[n+](C)cc3)cc1)n2Cc1cccc(C(=N)N)c1`: affinity was put at a Ki of 110 nM.
Under `Cc1cccc2c1cc(C(=O)NCc1ccnc3ccccc13)n2Cc1cccc(C(=N)N)c1` stands 173 nM.
Under `Cc1cccc2c1cc(C(=O)NCc1cc[n+]([O-])cc1)n2Cc1cccc(C(=N)N)c1` stands 14500 nM.
Compound `N=C(N)c1cccc(Cn2c(C(=O)NCc3cccc(F)c3)cc3c(O)cccc32)c1` had an inhibition constant Ki of 720 nM.
The same measure for `COC(=O)c1c(C(=O)NCc2cc[n+](C)cc2)n(Cc2cccc(C(=N)N)c2)c2ccccc12`: 350 nM; for `CN1CCC([C@@H](NC(=O)c2cc3ccccc3n2Cc2cccc(C(=N)N)c2)c2ccc3cc(Cl)ccc3c2)CC1`: 610 nM.
Turning to `N=C(N)c1cccc(Cn2c(C(=O)NCC34C[C@H]5C[C@@H](C3)C[C@@H](C4)C5)cc3c(O)cccc32)c1`, the affinity corresponds to a Ki of 274 nM.
Turning to `Cc1cc(C)cc(CNC(=O)c2c(Br)c3ccccc3n2Cc2cccc(C(=N)N)c2)c1`, the affinity corresponds to a Ki of 13 nM.
The same measure for `COc1ccc2c(c1)cc(C(=O)NCc1ccc([N+](C)(C)C)cc1)n2Cc1cccc(C(=N)N)c1`: 94 nM; for `COc1cc(CNC(=O)c2cc3c(O)cccc3n2Cc2cccc(C(=N)N)c2)cc(OC)c1`: 193 nM.
The compound `N=C(N)c1cccc(Cn2c(C(=O)NCCc3ccc(Cl)cc3Cl)cc3c(O)cccc32)c1` yielded a Ki of 840 nM.
In turn, `Cc1cccc2c1cc(C(=O)NCc1cccc(-c3ccccc3)c1)n2Cc1cccc(C(=N)N)c1` returned a Ki of 325 nM.
Consider `COc1cccc2c1cc(C(=O)NCc1ccc([N+](C)(C)C)cc1)n2Cc1cccc(C(=N)N)c1`, for which the affinity, expressed as Ki, was 62 nM.
The same measure for `Cc1cccc2c1cc(C(N)=O)n2Cc1cccc(C(=N)N)c1`: 7910 nM.
Regarding `N=C(N)c1cccc(Cn2c(C(=O)NCCc3ccc(Br)cc3)cc3c(O)cccc32)c1`, affinity was put at a Ki of 1630 nM.
`CN(CCNC(=O)c1cc2c(O)cccc2n1Cc1cccc(C(=N)N)c1)c1cccc2ccccc12` gave a Ki of 2470 nM.
The compound `COc1ccc2c(cc(C(=O)NCc3ccncc3)n2Cc2cccc(C(=N)N)c2)c1OC` displayed a Ki of 5310 nM.
Under `C[N+]1(C)CCC(C(NC(=O)c2cc3ccccc3n2Cc2cccc(C(=N)N)c2)c2ccc3cc(Cl)ccc3c2)CC1` (stereo not drawn) stands 1310 nM.
In the case of `N=C(N)c1cccc(Cn2c(C(=O)NNS(=O)(=O)c3ccccc3)cc3c(O)cccc32)c1`, the Ki amounted to 7050 nM.
With `Cc1cccc2c1cc(C(=O)NCc1ccc(O)cc1)n2Cc1cccc(C(=N)N)c1`, the Ki amounted to 1610 nM.
Compound `N=C(N)c1cccc(Cn2c(C(=O)NC(c3ccccc3)c3ccncc3)cc3ccccc32)c1` (stereo not drawn) had a Ki of 7030 nM.
Consider `Cc1cccc2c1cc(C(=O)OCc1cccc(C(=N)N)c1)n2Cc1cccc(C(=N)N)c1`, for which the affinity corresponds to a Ki of 44 nM.
In turn, `Cc1cccc2c1cc(C(=O)NCc1cccc3ccccc13)n2Cc1cccc(C(=N)N)c1` yielded a Ki of 96 nM.
For `COc1ccc2cc(C(=O)NCc3ccc([N+](C)(C)C)cc3)n(Cc3cccc(C(=N)N)c3)c2c1`, the inhibition constant (Ki) came out at 1760 nM.
As for `CSC(=O)c1cc2c(O)cccc2n1Cc1cccc(C(=N)N)c1`, the Ki stood at 2990 nM.
`COC(=O)c1c(C(=O)OC)n(Cc2cccc(C(=N)N)c2)c2ccccc12` gave a Ki of 7500 nM.
Compound `C[n+]1cccc(CC(NC(=O)c2cc3ccccc3n2Cc2cccc(C(=N)N)c2)C(N)=O)c1` (stereo not drawn) returned a Ki of 3900 nM.
The same measure for `CC(NC(=O)c1cc2ccccc2n1Cc1cccc(C(=N)N)c1)c1cc[n+](C)cc1` (stereo not drawn): 92 nM; for `Cc1c(F)ccc2c1cc(C(=O)NCc1ccc([N+](C)(C)Cc3ccccc3)cc1)n2Cc1cccc(C(=N)N)c1`: 245 nM.
With `C[N+](C)(C)c1ccc(CNC(=O)c2cc3cc([N+](=O)[O-])ccc3n2Cc2cccc(C(=N)N)c2)cc1`, the Ki was found to be 144 nM.
`C[n+]1ccc(CCNC(=O)c2cc3ccccc3n2Cc2cccc(C(=N)N)c2)cc1`: the Ki turned out to be 1300 nM.
The compound `COc1cccc(CNC(=O)c2cc3c(O)cccc3n2Cc2cccc(C(=N)N)c2)c1` gave a Ki of 308 nM.
Consider `N=C(N)c1cccc(Cn2c(C(=O)NCc3cccc(C(N)=O)c3)cc3ccccc32)c1`, for which the inhibitory constant (Ki) stood at 240 nM.
Compound `C[N+](C)(C)c1ccc(CNC(=O)c2cc3cc(N)ccc3n2Cc2cccc(C(=N)N)c2)cc1` gave a Ki of 60 nM.
In turn, `CCOC(=O)c1cc2c(C)cccc2n1Cc1cccc(C(=N)N)c1` gave a Ki of 948 nM.
Under `N=C(N)c1cccc(Cn2c(C(=O)NCc3cccc4ccccc34)c(Cl)c3ccccc32)c1` stands 304 nM; under `Cc1cccc2c1cc(C(=O)NCc1ccc([N+](C)(C)C)cc1)n2Cc1cccc(C(=N)N)c1`, 16 nM and 14 nM; under `C[N+](C)(C)c1ccc(CNC(=O)c2cc3cc(S(C)(=O)=O)ccc3n2Cc2cccc(C(=N)N)c2)cc1`, 226 nM.
Take `N=C(N)c1cccc(Cn2c(C(=O)NCc3ccnc4ccccc34)cc3c(O)cccc32)c1`: the Ki came out at 300 nM.
On to `N=C(N)c1cccc(Cn2c(C(=O)NCCc3ccc(Cl)c(Cl)c3)cc3c(O)cccc32)c1`, for which the Ki was 918 nM.
With `N=C(N)c1cccc(Cn2c(C(=O)NCc3cccc(C(F)(F)F)c3)cc3c(O)cccc32)c1`, the Ki worked out at 476 nM.
`C[N+](C)(C)c1ccc(CNC(=O)c2cc3c(OCc4ccccc4)cccc3n2Cc2cccc(C(=N)N)c2)cc1` returned a Ki of 84 nM.
Regarding `N=C(N)c1cccc(Cn2c(C(=O)NCc3ccccc3)cc3c(O)cccc32)c1`, affinity was put at a Ki of 2030 nM.
